The text below walks through data of US20260034123A1 (Cedilla Therapeutics, Inc., priority 2022, published 2026).

pIC50: −log10 of the molar value. Where “and” joins values, the source holds several entries; their conditions need not be identical. Identical values can stand only once. Bounds are passed on as bounds.

The target of assay [1] is T1, CDK2/Cyclin E1 (Homo sapiens, UniProt P24941). As to the kind of experiment: ADP-Glo Luminescent Kinase Assay (CDK2/E1-37C). To be noted: 0.18 nM CDK2/Cyclin E1, 100 μM ATP, Histone H1, 37° C.; read-out: ADPGLO (CDK2/E1-37C): IC50. The class given is biochemical. An outline of the steps: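 Activated CDK2/Cyclin E1 (0.18 nM final) preincubated with compound 60 min at 37 °C, then reacted with 100 μM ATP and Histone H1 ([…]) for 90 min at 37 °C in HEPES pH 7.5 buffer. ADP-Glo luminescence normalized to % activity; IC50 from four-parameter fit.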
(In general: In ADP-Glo the light output rises with the ADP produced.)

The target of assay [2] is T1, CDK2/Cyclin E1. As to the kind of experiment: Caliper LabChip EZ Reader mobility shift assay. The class given is biochemical. The conditions noted are these: 2.5 nM CDK2/Cyclin E1(14-475), 100 μM ATP, 30 min preincubation; read-out: Caliper Assay (CDK2/CCNE1): IC50. An outline of the steps:
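Mobility-shift assay with CDK2/Cyclin E1(14-475) at 2.5 nM, 100 μM ATP and 1.5 μM 5-FAM-QSPKKG-CONH2 in HEPES pH 7.5 buffer with 0.1% DMSO. Compounds were preincubated with enzyme and ATP for 30 min, the reaction ran 100 min and was stopped with EDTA. IC50 came from a four-parameter fit of normalized conversion ratio.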

For assay [3], the system named is Kuramochi cells RB-WT. Nature of the assay: IncuCyte Kuramochi cell proliferation assay, RB-WT. The conditions noted are these: 72 hours, cell count. In kind it is cell-based. An outline of the steps:
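mApple-H2B-labelled Kuramochi cells were treated with a 10-point, half-log series (top 20 µM) and imaged at 0 and 72 h. Fluorescent nuclei were counted, and the 0–72 h fold change was normalized to DMSO wells. GI50 came from dose-response fits.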

Assay [4] has as its system mouse models of polycystic kidney disease. The conditions noted are these: Bukanov et al., Nature 2006; cited from earlier work.

In the case of `CC1(C)C[C@@H]1C(=O)N1CC2(CN(C(=O)c3cncs3)C[C@H]2COCc2cccc(-c3ccc(C(F)(F)F)cc3)n2)C1` [Compound I-34, ((S)-2-((S)-2,2-dimethylcyclopropane-1-carbonyl)-8-(((6-(4-(trifluoromethyl)phenyl)pyridin-2-yl)methoxy)methyl)-2,6-diazaspiro[3.4]octan-6-yl)(thiazol-5-yl)methanone], the results for the pIC50 in assay [1], in assay [2] and in assay [3] were 5.30 to 6.30, 7.00 to 8.00 and 5.00 to 5.30, respectively.
With `CC1(C)C[C@@H]1C(=O)N1CC2(CN(C(=O)c3cncs3)C[C@H]2COCc2cccc(-c3ccccc3)n2)C1` [Compound I-36, ((S)-2-((S)-2,2-dimethylcyclopropanecarbonyl)-8-(((6-phenylpyridin-2-yl)methoxy)methyl)-2,6-diazaspiro[3.4]octan-6-yl)(thiazol-5-yl)methanone], the pIC50 is 5.00 to 5.30 in assay [1], 6.00 to 7.00 in assay [2] and under 5.00 in assay [3].
`CC1(C)C[C@@H]1C(=O)N1CC2(CN(C(=O)c3cncs3)C[C@H]2COCc2ccn(C3CCCC3)n2)C1` [Compound I-38, ((S)-8-(((1-cyclopentyl-1H-pyrazol-3-yl)methoxy)methyl)-2-((S)-2,2-dimethylcyclopropane-1-carbonyl)-2,6-diazaspiro[3.4]octan-6-yl)(thiazol-5-yl)methanone]: the values for the pIC50 in assay [1], in assay [2] and in assay [3] were under 5.00, 6.00 to 7.00 and under 5.00, respectively.
As for `CC1(C)C[C@@H]1C(=O)N1CC2(CN(C(=O)c3cncs3)C[C@H]2COCc2cccc(C3CCOCC3)c2)C1` [Compound I-39, ((S)-2-((S)-2,2-dimethylcyclopropane-1-carbonyl)-8-(((3-(tetrahydro-2H-pyran-4-yl)benzyl)oxy)methyl)-2,6-diazaspiro[3.4]octan-6-yl)(thiazol-5-yl)methanone], the pIC50 in assay [1] is under 5.00; in assay [2] it was 6.00 to 7.00; in assay [3], under 5.00.
For the compound `CC1(C)C[C@@H]1C(=O)N1CC2(CN(C(=O)c3cncs3)C[C@H]2COCc2cccc(C3CCOCC3)n2)C1` [Compound I-49, (2-((S)-2,2-dimethylcyclopropane-1-carbonyl)-8-(((6-(tetrahydro-2H-pyran-4-yl)pyridin-2-yl)methoxy)methyl)-2,6-diazaspiro[3.4]octan-6-yl)(thiazol-5-yl)methanone], the pIC50 in assay [1] is 5.00 to 5.30; in assay [2] it was 5.00 to 6.00 and 6.00 to 7.00; in assay [3], under 5.00.
`O=C(O)C(Cc1cccc(-c2ccc(C(F)(F)F)cc2)n1)CC1CN(C(=O)c2cnn(Cc3ccc(C(F)(F)F)cc3)c2)CC12CN(C(=O)C1(C(F)(F)F)CC1)C2` (stereo not shown) [Compound I-50, 2-((6-(1-(4-(trifluoromethyl)benzyl)-1H-pyrazole-4-carbonyl)-2-(1-(trifluoromethyl)cyclopropane-1-carbonyl)-2,6-diazaspiro[3.4]octan-8-yl)methyl)-3-(6-(4-(trifluoromethyl)phenyl)pyridin-2-yl)propanoic acid]: the pIC50 in assay [1], in assay [2] and in assay [3] was under 5.00 in each case.
In the case of `CC[C@H](CO)Nc1nc(NCc2ccccc2)c2ncn(C(C)C)c2n1` [roscovitine], in assay [4], the “arrest of cystic kidney disease” value is “effective arrest of cystic kidney disease”.
